Experimental data: patent US20080125469A1, “Thiadiazole compounds and methods of use thereof” (Wyeth, priority 2006, published 2008)

What follows are compounds tested against T1, purified recombinant human Aggrecanase-2 (Agg2-Phe628) (Homo sapiens, UniProt Q9UNA0) (assay: Aggrecanase 2 continuous in vitro fluorescence assay). Details: Agg2-Phe628 0.5 μg/ml, substrate 25 μM, 30° C.; read-out: IC50.
T1 construct: (Agg2-Phe628) (MW=41,737), which is a truncated form of full-length human aggrecanase-2; made in house; host or cells: CHO cells
T1 sequence (Q9UNA0 262-628 limits assumed): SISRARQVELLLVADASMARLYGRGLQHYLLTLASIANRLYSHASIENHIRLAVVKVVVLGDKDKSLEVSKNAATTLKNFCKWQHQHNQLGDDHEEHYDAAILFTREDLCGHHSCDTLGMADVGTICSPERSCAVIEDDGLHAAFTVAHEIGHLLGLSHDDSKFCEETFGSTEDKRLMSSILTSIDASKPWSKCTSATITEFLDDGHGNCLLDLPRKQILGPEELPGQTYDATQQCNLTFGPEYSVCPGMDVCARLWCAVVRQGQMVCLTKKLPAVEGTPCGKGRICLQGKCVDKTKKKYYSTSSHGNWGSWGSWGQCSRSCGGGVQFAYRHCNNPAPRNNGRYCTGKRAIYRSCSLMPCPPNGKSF
Format: biochemical
Protocol: A continuous vitro fluorescence assay was employed, wherein the enzyme used in the assay was a purified recombinant human Aggrecanase-2 (Agg2-Phe628) (MW=41,737), which is a truncated form of full-length human aggrecanase-2 that was expressed in CHO cells and purified prior to use. The final concentration of Agg2-Phe628 was 0.5 μg/ml. The buffer used in this assay was 50 mM HEPES, pH 7.5, 100 mM NaCl, 5 mM CaCl2, 0.1% CHAPS, 5% glycerol. The substrate used in the assay was a synthetic peptide having the sequence ABz-[sequence]-Dap(Dnp)-KK—NH2 (>95% pure by HPLC, AnaSpec, Inc.), wherein Abz refers to ortho-aminobenzyl, a fluorescent group which is quenched by energy transfer to a 2,4-dinitrophenyl group. The final concentration of substrate in the assay was 25 μM and was spectrophotometrically determined using the extinction coefficient at 354 nm of 18,172 M^−1cm^−1. The Vmax and Km for this enzyme/substrate reaction were determined to be insensitive to DMSO up to at least 10% (v/v).
The total reaction volume was 100 μl. The buffer and enzyme were added first followed by addition of 10× inhibitor from the dilution plate. Separate enzyme and buffer samples were included in order to obtain the maximal rate of substrate cleavage. The reaction was allowed to stand at 30° C. for 15 minutes, then substrate was added, the resultant solution was mixed. The resultant reaction was allowed to progress, with monitoring, for 40 minutes at 30° C. in kinetic mode using λex: 340 nm and λem: 420 (GeminiXS Molecular Devices).
The fluorescence intensity is linear during the time of data collection. The slope of the line (Vmax/sec) represents the initial reaction rate, ν. The maximal rate of cleavage of substrate was determined in the absence of inhibitor. The percent inhibition of activity in the presence of inhibitor was calculated using the following equation:
% inhibition=(1−ν(RFU/sec))/Maximal Rate(RFU/sec))*100
The IC50 was obtained by fitting the initial rate, ν or % inhibition at each concentration of inhibitor to the following equation:
This model describes a sigmoidal curve with an adjustable baseline, wherein:
y is the % inhibition or initial rate of reaction;
C is the concentration of inhibitor under test;
a is the limiting response as C approaches zero. As C increases without bound y tends toward its lower limit, d;
y is halfway between the lower and upper asymptotes when C=IC50; and
n is the Hill coefficient. The sign of n is positive when the response increases with increasing dose and is negative when the response decreases with increasing dose (inhibition).

| IC50 | Compound |
| --- | --- |
| 5.42 µM | CCN1C(=O)C2(NN=C(c3ccc(OC)cc3)S2)c2cc(F)c(N3CCN(C)CC3)cc21 (stereo not shown) [Compound 21, 1-ethyl-5-fluoro-5′-(4-methoxyphenyl)-6-(4-methylpiperazin-1-yl)-3′H-spiro[indole-3,2′-[1,3,4]thiadiazol]-2(1H)-one] |
| 2.53 µM | COc1ccc(C2=NNC3(S2)C(=O)Nc2ccc(C)cc23)cc1 (stereo not shown) [Compound 5, 5′-(4-methoxyphenyl)-5-methyl-3′H-spiro[indole-3,2′-[1,3,4]thiadiazol]-2(1H)-one] |
| 3.75 µM | COc1ccc(C2=NNC3(S2)C(=O)Nc2c(C)cccc23)cc1 (stereo not shown) [Compound 18, 5′-(4-methoxyphenyl)-7-methyl-3′H-spiro[indole-3,2′-[1,3,4]thiadiazol]-2(1H)-one] |
| 0.995 µM | COc1ccc(C2=NNC3(S2)C(=O)N(c2cccc([N+](=O)[O-])c2)c2ccc(C)cc23)cc1 (stereo not shown) [Compound 27, 5′-(4-methoxyphenyl)-5-methyl-1-(3-nitrophenyl)-3′H-spiro[indole-3,2′-[1,3,4]thiadiazol]-2(1H)-one] |
| 1.45 µM | CCCC(=O)N1C(=O)C2(NN=C(c3ccc(C)cc3)S2)c2cc(CC)ccc21 (stereo not shown) [Compound 45, 1-butyryl-5-ethyl-5′-(4-methylphenyl)-3′H-spiro[indole-3,2′-[1,3,4]thiadiazol]-2(1H)-one] |
| 1.19 µM | COc1ccc(C2=NNC3(S2)C(=O)Nc2cc(Cl)ccc23)cc1 (stereo not shown) [Compound 12, 6-chloro-5′-(4-methoxyphenyl)-3′H-spiro[indole-3,2′-[1,3,4]thiadiazol]-2(1H)-one] |
| 1.66 µM | CCc1ccc2c(c1)C1(NN=C(c3ccc(C(C)(C)C)cc3)S1)C(=O)N2 (stereo not shown) [Compound 44, 5′-(4-tert-butylphenyl)-5-ethyl-3′H-spiro[indole-3,2′-[1,3,4]thiadiazol]-2(1H)-one] |
| 0.95 µM | CCCc1ccc2c(c1)N(Cc1ccccc1)C(=O)C21NN=C(c2ccc(OC)cc2)S1 (stereo not shown) [Compound 28, 1-benzyl-5′-(4-methoxyphenyl)-6-propyl-3′H-spiro[indole-3,2′-[1,3,4]thiadiazol]-2(1H)-one] |
| 5.92 µM | COc1ccc(C2=NNC3(S2)C(=O)Nc2c3ccc(C)c2OC)cc1 (stereo not shown) [Compound 20, 7-methoxy-5′-(4-methoxyphenyl)-6-methyl-3′H-spiro[indole-3,2′-[1,3,4]thiadiazol]-2(1H)-one] |
| 0.874 µM | 1-benzyl-5′-(4-methoxyphenyl)-3′H-spiro[indole-3,2′-[1,3,4]thiadiazol]-2(1H)-one [Compound 10] |
| 2.96 µM | CCc1ccc2c(c1)C1(NN=C(c3ccc(F)cc3)S1)C(=O)N2 (stereo not shown) [Compound 43, 5-ethyl-5′-(4-fluorophenyl)-3′H-spiro[indole-3,2′-[1,3,4]thiadiazol]-2(1H)-one] |
| 1.52 µM | CCCC(=O)N1C(=O)C2(NN=C(c3ccc(OC)cc3)S2)c2cc(CC)ccc21 (stereo not shown) [Compound 46, 1-butyryl-5-ethyl-5′-(4-methoxyphenyl)-3′H-spiro[indole-3,2′-[1,3,4]thiadiazol]-2(1H)-one] |
| 1.96 µM | 5-chloro-5′-(4-methoxyphenyl)-3′H-spiro[indole-3,2′-[1,3,4]thiadiazol]-2(1H)-one [Compound 13] |

Same assay, conditions: inhibitor concentration not given

| % Inhibition | Compound |
| --- | --- |
| 39% | COc1ccc(C2=NNC3(S2)C(=O)N(c2ccc(C)cc2)c2ccc(C)cc23)cc1 (stereo not shown) [Compound 24, 5′-(4-methoxyphenyl)-5-methyl-1-(4-methylphenyl)-3′H-spiro[indole-3,2′-[1,3,4]thiadiazol]-2(1H)-one] |
| 50% | COc1ccc(C2=NNC3(S2)C(=O)Nc2cccc(N4CCN(Cc5ccccc5)CC4)c23)cc1 (stereo not shown) [Compound 14, 4-(4-benzylpiperazin-1-yl)-5′-(4-methoxyphenyl)-3′H-spiro[indole-3,2′-[1,3,4]thiadiazol]-2(1H)-one] |
| 41% | COc1ccc2c(c1)C1(NN=C(c3ccccc3)S1)C(=O)N2 (stereo not shown) [Compound 35, 5-methoxy-5′-phenyl-3′H-spiro[indole-3,2′-[1,3,4]thiadiazol]-2(1H)-one] |
